According to patent US10266537B2, “3-acetylenyl-pyrazole-pyrimidine derivative, and preparation method therefor and uses thereof” (Si Chuan University, priority 2015, dated 2019):

Columns and labels:
PKA(h) = PKA(h) (Homo sapiens (Human), UniProt P17612); test: Kinase inhibition assay (KinaseProfiler, 33P-ATP); assay type: biochemical; details: 10 μM, read-out: The percentage of the remaining active protein
PKCα(h) = PKCα(h) (Homo sapiens (Human), UniProt P17252); test: Kinase inhibition assay (KinaseProfiler, 33P-ATP); assay type: biochemical; details: 10 μM, read-out: The percentage of the remaining active protein
DDR2 = DDR2 (Homo sapiens (Human), UniProt Q16832); test: Kinase inhibition assay (KinaseProfiler, 33P-ATP); assay type: biochemical
DDR2, sequence (Q16832 22-855): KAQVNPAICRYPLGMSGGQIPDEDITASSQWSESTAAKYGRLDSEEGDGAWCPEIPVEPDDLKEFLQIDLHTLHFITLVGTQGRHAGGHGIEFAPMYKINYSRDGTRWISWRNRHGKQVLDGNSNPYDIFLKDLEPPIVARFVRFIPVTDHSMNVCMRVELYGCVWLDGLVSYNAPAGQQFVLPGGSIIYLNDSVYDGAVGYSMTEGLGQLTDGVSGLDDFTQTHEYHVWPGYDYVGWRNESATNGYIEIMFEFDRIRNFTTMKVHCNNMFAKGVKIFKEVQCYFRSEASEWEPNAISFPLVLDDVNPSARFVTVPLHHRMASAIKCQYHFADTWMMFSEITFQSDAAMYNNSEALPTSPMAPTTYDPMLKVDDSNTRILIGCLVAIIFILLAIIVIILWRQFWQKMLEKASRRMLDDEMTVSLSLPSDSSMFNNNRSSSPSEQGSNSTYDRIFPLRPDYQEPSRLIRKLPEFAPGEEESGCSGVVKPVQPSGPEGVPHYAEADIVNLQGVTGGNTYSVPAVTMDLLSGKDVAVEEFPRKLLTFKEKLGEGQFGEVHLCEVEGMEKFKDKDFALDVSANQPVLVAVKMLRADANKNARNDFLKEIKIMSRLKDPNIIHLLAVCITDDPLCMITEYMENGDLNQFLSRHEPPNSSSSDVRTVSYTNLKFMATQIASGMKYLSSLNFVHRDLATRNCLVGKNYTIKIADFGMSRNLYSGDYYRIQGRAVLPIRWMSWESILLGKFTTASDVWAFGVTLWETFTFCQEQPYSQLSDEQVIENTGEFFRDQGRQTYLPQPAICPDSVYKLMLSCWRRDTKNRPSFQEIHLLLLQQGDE

Met(h) = Met(h) (Homo sapiens (Human), UniProt P08581); test: Kinase inhibition assay (KinaseProfiler, 33P-ATP); assay type: biochemical; details: 10 μM, read-out: The percentage of the remaining active protein
EGFR = EGFR (Homo sapiens (Human), UniProt P00533); test: Kinase inhibition assay (KinaseProfiler, 33P-ATP); assay type: biochemical; details: EGFR(h); 10 μM; read-out: The percentage of the remaining active protein
Tec(h) activated = Tec(h) activated (Homo sapiens (Human), UniProt P42680); test: Kinase inhibition assay (KinaseProfiler, 33P-ATP); assay type: biochemical; details: 10 μM, read-out: The percentage of the remaining active protein
FGFR1 = FGFR1 (Homo sapiens (Human), UniProt P11362); test: Kinase inhibition assay (KinaseProfiler, 33P-ATP); assay type: biochemical; details: FGFR1(h); 10 μM; read-out: The percentage of the remaining active protein
c-Src(T341M) = c-Src(T341M) (Homo sapiens (Human), UniProt P12931, T341M); test: Kinase inhibition assay (KinaseProfiler, 33P-ATP); assay type: biochemical; details: Src(T341M)(h); 10 μM; read-out: The percentage of the remaining active protein
FAK(h) = FAK(h) (Homo sapiens (Human), UniProt Q05397); test: Kinase inhibition assay (KinaseProfiler, 33P-ATP); assay type: biochemical; details: 10 μM, read-out: The percentage of the remaining active protein
TrkA = TrkA (Homo sapiens (Human), UniProt P04629); test: Kinase inhibition assay (KinaseProfiler, 33P-ATP); assay type: biochemical; details: TrkA(h); 10 μM; read-out: The percentage of the remaining active protein
PI3 Kinase a(h) = PI3 Kinase a(h) (Homo sapiens (Human), UniProt P42336); test: Kinase inhibition assay (KinaseProfiler, 33P-ATP); assay type: biochemical; details: PI3 Kinase (p110a/p85a)(h); 10 μM; read-out: The percentage of the remaining active protein
Fyn = Fyn (Homo sapiens (Human), UniProt P06241); test: Kinase inhibition assay (KinaseProfiler, 33P-ATP); assay type: biochemical
Fyn, sequence (P06241 whole entry): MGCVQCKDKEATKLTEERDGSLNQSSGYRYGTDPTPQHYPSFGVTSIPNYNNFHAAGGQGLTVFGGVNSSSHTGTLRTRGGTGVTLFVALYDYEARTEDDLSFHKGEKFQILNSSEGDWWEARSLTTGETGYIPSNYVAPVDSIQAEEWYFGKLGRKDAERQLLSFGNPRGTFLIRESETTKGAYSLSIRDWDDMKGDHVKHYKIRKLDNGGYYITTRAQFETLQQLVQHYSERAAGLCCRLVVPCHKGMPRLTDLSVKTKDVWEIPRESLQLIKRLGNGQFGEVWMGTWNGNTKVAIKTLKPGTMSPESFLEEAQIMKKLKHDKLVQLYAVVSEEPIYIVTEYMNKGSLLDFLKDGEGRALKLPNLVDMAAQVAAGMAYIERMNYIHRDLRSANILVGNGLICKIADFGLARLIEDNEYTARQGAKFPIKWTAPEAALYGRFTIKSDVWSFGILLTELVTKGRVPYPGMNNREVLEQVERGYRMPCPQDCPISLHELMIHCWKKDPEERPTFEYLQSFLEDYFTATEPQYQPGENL

ALK(h) = ALK(h) (Homo sapiens (Human), UniProt Q9UM73); test: Kinase inhibition assay (KinaseProfiler, 33P-ATP); assay type: biochemical; details: 10 μM, read-out: The percentage of the remaining active protein
TBK1(h) = TBK1(h) (Homo sapiens (Human), UniProt Q9UHD2); test: Kinase inhibition assay (KinaseProfiler, 33P-ATP); assay type: biochemical; details: 10 μM, read-out: The percentage of the remaining active protein
c-RAF = c-RAF (Homo sapiens (Human), UniProt P04049); test: Kinase inhibition assay (KinaseProfiler, 33P-ATP); assay type: biochemical; details: c-RAF(h); 10 μM; read-out: The percentage of the remaining active protein
EphA8(h) = EphA8(h) (Homo sapiens (Human), UniProt P29322); test: Kinase inhibition assay (KinaseProfiler, 33P-ATP); assay type: biochemical; details: 10 μM, read-out: The percentage of the remaining active protein
PDGFRα = PDGFRα (Homo sapiens (Human), UniProt P16234); test: Kinase inhibition assay (KinaseProfiler, 33P-ATP); assay type: biochemical; details: PDGFRα(h); 10 μM; read-out: The percentage of the remaining active protein
PKBβ(h) = PKBβ(h) (Homo sapiens (Human), UniProt P31751); test: Kinase inhibition assay (KinaseProfiler, 33P-ATP); assay type: biochemical; details: 10 μM, read-out: The percentage of the remaining active protein
RIPK2(h) = RIPK2(h) (Homo sapiens (Human), UniProt O43353); test: Kinase inhibition assay (KinaseProfiler, 33P-ATP); assay type: biochemical; details: 10 μM, read-out: The percentage of the remaining active protein
mTOR(h) = mTOR(h) (Homo sapiens (Human), UniProt P42345); test: Kinase inhibition assay (KinaseProfiler, 33P-ATP); assay type: biochemical; details: 10 μM, read-out: The percentage of the remaining active protein
GSK3β(h) = GSK3β(h) (Homo sapiens (Human), UniProt P49841); test: Kinase inhibition assay (KinaseProfiler, 33P-ATP); assay type: biochemical; details: 10 μM, read-out: The percentage of the remaining active protein
Yes = Yes (Homo sapiens (Human), UniProt P07947); test: Kinase inhibition assay (KinaseProfiler, 33P-ATP); assay type: biochemical
Yes, sequence (P07947 whole entry): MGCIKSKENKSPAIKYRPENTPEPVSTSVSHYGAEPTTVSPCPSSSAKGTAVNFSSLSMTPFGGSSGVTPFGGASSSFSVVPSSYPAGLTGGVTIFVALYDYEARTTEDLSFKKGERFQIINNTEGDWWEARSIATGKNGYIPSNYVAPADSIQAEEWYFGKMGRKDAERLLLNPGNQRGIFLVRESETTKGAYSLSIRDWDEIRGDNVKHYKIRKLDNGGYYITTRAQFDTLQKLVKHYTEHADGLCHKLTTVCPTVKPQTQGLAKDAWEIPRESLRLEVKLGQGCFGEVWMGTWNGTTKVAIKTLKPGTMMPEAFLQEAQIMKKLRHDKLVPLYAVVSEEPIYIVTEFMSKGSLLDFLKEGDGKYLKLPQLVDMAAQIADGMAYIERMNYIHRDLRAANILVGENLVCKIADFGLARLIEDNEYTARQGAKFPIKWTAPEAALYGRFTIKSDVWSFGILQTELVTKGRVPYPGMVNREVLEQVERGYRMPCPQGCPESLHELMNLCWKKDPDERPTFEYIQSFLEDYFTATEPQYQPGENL

ErbB2 = ErbB2 (Homo sapiens (Human), UniProt P04626); test: Kinase inhibition assay (KinaseProfiler, 33P-ATP); assay type: biochemical
ErbB2, sequence (P04626 23-1255): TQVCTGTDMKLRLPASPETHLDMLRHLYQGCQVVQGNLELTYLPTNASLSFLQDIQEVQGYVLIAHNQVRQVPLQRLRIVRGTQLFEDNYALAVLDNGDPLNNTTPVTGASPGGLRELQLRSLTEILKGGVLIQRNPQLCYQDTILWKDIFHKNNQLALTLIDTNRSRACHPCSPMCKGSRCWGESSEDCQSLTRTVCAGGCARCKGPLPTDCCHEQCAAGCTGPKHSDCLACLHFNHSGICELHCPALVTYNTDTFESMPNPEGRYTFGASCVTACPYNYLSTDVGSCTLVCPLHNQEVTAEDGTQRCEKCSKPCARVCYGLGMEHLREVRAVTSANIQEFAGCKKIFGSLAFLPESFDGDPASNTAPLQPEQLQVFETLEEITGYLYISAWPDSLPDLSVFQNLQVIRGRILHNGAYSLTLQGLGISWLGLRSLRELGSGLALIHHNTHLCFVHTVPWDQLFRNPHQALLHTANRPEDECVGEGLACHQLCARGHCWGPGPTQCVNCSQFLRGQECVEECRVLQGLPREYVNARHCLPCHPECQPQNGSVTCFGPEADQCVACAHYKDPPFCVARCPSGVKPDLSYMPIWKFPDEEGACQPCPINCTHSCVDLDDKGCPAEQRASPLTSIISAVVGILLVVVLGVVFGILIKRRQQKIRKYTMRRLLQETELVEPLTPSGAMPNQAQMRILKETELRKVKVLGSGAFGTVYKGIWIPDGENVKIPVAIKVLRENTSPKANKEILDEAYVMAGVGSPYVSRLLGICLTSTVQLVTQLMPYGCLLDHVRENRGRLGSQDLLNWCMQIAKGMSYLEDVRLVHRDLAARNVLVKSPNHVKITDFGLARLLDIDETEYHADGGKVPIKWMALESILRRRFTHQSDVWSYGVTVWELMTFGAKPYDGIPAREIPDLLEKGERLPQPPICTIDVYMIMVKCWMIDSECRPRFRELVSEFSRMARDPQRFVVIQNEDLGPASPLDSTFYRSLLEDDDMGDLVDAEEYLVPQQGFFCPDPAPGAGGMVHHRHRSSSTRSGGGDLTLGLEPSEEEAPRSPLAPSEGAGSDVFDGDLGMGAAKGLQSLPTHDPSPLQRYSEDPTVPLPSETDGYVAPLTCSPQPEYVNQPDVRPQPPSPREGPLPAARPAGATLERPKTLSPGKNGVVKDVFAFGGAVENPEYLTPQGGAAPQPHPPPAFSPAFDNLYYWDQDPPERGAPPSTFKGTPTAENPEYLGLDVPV

Pim-1(h) = Pim-1(h) (Homo sapiens (Human), UniProt P11309); test: Kinase inhibition assay (KinaseProfiler, 33P-ATP); assay type: biochemical; details: 10 μM, read-out: The percentage of the remaining active protein
Pim-1(h), sequence (P11309 whole entry): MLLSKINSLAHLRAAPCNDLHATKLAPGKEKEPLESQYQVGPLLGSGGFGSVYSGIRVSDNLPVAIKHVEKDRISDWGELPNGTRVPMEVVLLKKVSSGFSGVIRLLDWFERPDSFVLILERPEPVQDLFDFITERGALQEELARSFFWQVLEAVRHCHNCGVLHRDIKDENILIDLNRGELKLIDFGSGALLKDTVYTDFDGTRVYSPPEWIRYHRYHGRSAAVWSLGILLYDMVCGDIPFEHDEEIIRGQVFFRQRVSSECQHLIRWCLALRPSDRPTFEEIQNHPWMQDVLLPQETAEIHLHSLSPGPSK

Bmx = Bmx (Homo sapiens (Human), UniProt P51813); test: Kinase inhibition assay (KinaseProfiler, 33P-ATP)
Bmx, sequence (P51813 whole entry): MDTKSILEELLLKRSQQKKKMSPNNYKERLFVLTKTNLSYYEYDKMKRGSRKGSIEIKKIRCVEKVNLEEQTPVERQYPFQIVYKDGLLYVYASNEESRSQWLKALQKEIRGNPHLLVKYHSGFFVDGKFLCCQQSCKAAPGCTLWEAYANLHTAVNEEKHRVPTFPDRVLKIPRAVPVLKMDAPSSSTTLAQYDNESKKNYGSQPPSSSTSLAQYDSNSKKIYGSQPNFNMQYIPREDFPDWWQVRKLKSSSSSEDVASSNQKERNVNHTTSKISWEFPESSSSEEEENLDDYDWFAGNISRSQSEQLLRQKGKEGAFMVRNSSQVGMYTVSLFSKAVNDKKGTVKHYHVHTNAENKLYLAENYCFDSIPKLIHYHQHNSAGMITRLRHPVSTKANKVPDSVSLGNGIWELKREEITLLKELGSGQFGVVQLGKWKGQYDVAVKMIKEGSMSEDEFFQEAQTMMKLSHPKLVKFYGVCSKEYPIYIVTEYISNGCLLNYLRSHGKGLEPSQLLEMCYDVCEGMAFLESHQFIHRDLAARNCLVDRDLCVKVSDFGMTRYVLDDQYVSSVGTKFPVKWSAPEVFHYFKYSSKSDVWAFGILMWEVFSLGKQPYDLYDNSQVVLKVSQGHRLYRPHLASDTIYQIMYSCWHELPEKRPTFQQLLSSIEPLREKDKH

Fer(h) = Fer(h) (Homo sapiens (Human), UniProt P16591); test: Kinase inhibition assay (KinaseProfiler, 33P-ATP); assay type: biochemical; details: 10 μM, read-out: The percentage of the remaining active protein
Fer(h), sequence (P16591 whole entry): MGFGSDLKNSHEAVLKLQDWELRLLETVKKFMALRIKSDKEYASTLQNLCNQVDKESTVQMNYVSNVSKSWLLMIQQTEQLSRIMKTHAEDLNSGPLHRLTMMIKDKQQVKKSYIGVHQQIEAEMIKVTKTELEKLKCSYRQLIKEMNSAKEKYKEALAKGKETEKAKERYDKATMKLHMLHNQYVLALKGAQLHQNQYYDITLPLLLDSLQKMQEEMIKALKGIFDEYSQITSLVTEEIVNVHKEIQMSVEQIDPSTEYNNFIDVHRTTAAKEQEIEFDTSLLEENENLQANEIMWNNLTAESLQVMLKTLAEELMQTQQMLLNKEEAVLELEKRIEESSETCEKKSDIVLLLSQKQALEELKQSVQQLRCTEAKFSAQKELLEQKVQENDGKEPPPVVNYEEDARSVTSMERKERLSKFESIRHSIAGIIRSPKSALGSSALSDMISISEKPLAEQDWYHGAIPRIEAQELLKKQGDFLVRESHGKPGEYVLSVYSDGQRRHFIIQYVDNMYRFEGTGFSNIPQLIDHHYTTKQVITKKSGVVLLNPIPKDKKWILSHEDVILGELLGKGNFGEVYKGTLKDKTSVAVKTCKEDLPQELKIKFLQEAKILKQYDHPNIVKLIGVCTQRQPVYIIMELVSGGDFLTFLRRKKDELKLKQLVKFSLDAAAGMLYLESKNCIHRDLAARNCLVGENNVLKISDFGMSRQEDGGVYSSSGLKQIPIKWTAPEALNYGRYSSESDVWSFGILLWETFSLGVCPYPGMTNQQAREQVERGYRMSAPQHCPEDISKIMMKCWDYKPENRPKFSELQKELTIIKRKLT

Axl = Axl (Homo sapiens (Human), UniProt P30530); test: Kinase inhibition assay (KinaseProfiler, 33P-ATP); assay type: biochemical; details: Axl(h); 10 μM; read-out: The percentage of the remaining active protein
IKKβ = IKKβ (Homo sapiens (Human), UniProt O14920); test: Kinase inhibition assay (KinaseProfiler, 33P-ATP); assay type: biochemical; details: IKKβ(h); 10 μM; read-out: The percentage of the remaining active protein
Miapaca-2 = test: Cell proliferation inhibition assay (MTT); assay type: cell-based; details: Homo sapiens, MIA PaCa-2; Miapaca-2; MTT, 72 hours; read-out: Proliferation inhibitory activity IC50
Experimental: (§1) The cells were seeded in 96-well plates with 200 μL of cell suspension per well and incubated overnight in a cell culture medium with a cell concentration of 1 2×10^4 cells/mL. The next day, the supernatant was discarded (the suspension cell was centrifuged before it) and the cells were treated with gradient concentrations of the test compound, respectively. […] After 72 hours, add 20 μL of MTT reagent at a concentration of 5 mg/mL per well. After incubation for 2-4 h, the supernatant was discarded and 150 μL of DMSO was added to each well. […] Relative cell proliferation inhibition rate=([MUT]-[MUT])×100%/[MUT]. The experiment was repeated at least 3 times. Experimental data were expressed as mean, data statistics using t test, P<0.05 for the difference was statistically significant.

A549 = test: Cell proliferation inhibition assay (MTT); assay type: cell-based; details: Homo sapiens; A549; MTT, 72 hours; read-out: Proliferation inhibitory activity IC50
Experimental: as §1

KDR = KDR (Homo sapiens (Human), UniProt P35968); test: Kinase inhibition assay (KinaseProfiler, 33P-ATP); assay type: biochemical; details: KDR(h); 10 μM; read-out: The percentage of the remaining active protein

`Cc1ccc(NC(=O)c2ccc(C)c(C(F)(F)F)c2)cc1C#Cc1nn([C@H]2CC[C@H](O)CC2)c2ncnc(N)c12` [Compound 93] gave a remaining activity at 10 µM (PKA(h)) of 60%, a remaining activity at 10 µM (PKCα(h)) of 110% and a remaining activity at 10 µM (DDR2; DDR2(h), 10 μM, read-out: The percentage of the remaining active protein) of 16%. It also gave an IC50 (DDR2; DDR2, ATP at Km) of 65 nM, a remaining activity at 10 µM (Met(h)) of 133% and a remaining activity at 10 µM (EGFR) of 11%. For the same molecule, the remaining activity at 10 µM (Tec(h) activated) was 24%, the remaining activity at 10 µM (FGFR1) was 1% and the remaining activity at 10 µM (c-Src(T341M)) was 20%. It also gave a remaining activity at 10 µM (FAK(h)) of 45%, a remaining activity at 10 µM (TrkA) of 72% and a remaining activity at 10 µM (PI3 Kinase a(h)) of 79%. The remaining activity at 10 µM (Fyn; Fyn(h), 10 μM, read-out: The percentage of the remaining active protein) was 0%, the IC50 (Fyn; Fyn, ATP at Km) was 6 nM and the remaining activity at 10 µM (ALK(h)) was 92%. For the same molecule, the remaining activity at 10 µM (TBK1(h)) was 104%, the remaining activity at 10 µM (c-RAF) was 24% and the remaining activity at 10 µM (EphA8(h)) was 2%. The remaining activity at 10 µM (PDGFRα) was 60%, the remaining activity at 10 µM (PKBβ(h)) was 127% and the remaining activity at 10 µM (RIPK2(h)) was 21%. It also gave a remaining activity at 10 µM (mTOR(h)) of 101%, a remaining activity at 10 µM (GSK3β(h)) of 26% and a remaining activity at 10 µM (Yes; Yes(h), 10 μM, read-out: The percentage of the remaining active protein) of 0%. It also gave an IC50 (Yes; Yes, ATP at Km) of 1 nM, a remaining activity at 10 µM (ErbB2; ErbB2(h), 10 μM, read-out: The percentage of the remaining active protein) of 4% and an IC50 (ErbB2; ErbB2, ATP at Km) of 165 nM. It also gave a remaining activity at 10 µM (Pim-1(h)) of 99%, an IC50 (Bmx; Bmx, ATP at Km) of 21 nM and a remaining activity at 10 µM (Bmx; read-out: The percentage of the remaining active protein) of -1%. It also gave a remaining activity at 10 µM (Fer(h)) of 67%, a remaining activity at 10 µM (Axl) of 56% and a remaining activity at 10 µM (IKKβ) of 33%. The IC50 (Miapaca-2) was less than 600 nM, the IC50 (A549) was greater than 10000 nM and the remaining activity at 10 µM (KDR) was 2%.
